Columns and labels:
ER [1] = target: T1, ER (Homo sapiens, UniProt P03372); assay: In-cell Western (ICW) ER degradation assay in MCF-7 cells; assay type: cell-based; settings: 16 hrs; for Dmax: MCF7, MCF-7 cells, read-out: ER MCF7 ICW Dmax (%); for DC50: read-out: ER MCF7 ICW DC50
T1 construct: endogenous in cells; probably T47D or MCF-7
T1 sequence (P03372 1-595): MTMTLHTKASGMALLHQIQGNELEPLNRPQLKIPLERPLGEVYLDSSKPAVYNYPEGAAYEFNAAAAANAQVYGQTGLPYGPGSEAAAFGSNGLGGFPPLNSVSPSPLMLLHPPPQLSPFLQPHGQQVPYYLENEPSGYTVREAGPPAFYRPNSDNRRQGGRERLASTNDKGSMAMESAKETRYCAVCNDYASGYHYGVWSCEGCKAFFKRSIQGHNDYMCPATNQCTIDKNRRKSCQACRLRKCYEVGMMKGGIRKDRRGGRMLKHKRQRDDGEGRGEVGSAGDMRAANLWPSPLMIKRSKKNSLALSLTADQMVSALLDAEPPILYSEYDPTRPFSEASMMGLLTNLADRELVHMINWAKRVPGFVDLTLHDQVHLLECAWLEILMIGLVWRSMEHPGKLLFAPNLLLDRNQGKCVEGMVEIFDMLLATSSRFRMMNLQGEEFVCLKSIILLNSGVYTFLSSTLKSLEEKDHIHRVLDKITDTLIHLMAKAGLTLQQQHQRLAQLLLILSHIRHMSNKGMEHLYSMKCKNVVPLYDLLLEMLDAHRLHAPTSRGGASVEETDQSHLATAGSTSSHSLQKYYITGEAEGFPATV
Procedure: (§1) ERa degradative activity of compounds can be assessed in MCF-7 and T47D Cells. MCF-7 and T47D cell are seeded and are subsequently treated with the compounds at certain concentrations (e.g., 0.02 to 300 nM). DMSO can be used as vehicle control. Cells are fixed and are blocked with Intercept (PBS) Blocking Buffer (e.g., Li—COR, Odyssey Blocking Buffer), and are stained with ER (e.g., 1:500, Cell signaling) primary antibody for overnight at cold room. Secondary Antibody (e.g., IRDye 800CW Goat anti-Rabbit IgG) and CellTag 700 Stain are added in Intercept (PBS) Blocking Buffer. Finally, cell plate is placed in incubator to dry. Image and signal are captured on Odyssey® DLx Imaging System.
(§2) In-cell Western (ICW) assays in MCF-7 and T47D cell lines.
(§3) Procedures for ICW assays
(§4) In vitro Assay: MCF-7 and T47D ICW assay
(§5) Day 3: After 16 hrs of compounds treatment, cells were fixed by 4% PFA and permeabilized with elution buffer (0.1% Triton X-100 in 1% PBS Solution). Subsequently, cells were blocked with Intercept (PBS) Blocking Buffer (Li—COR, Odyssey Blocking Buffer), and were stained with ER (1:500, Cell signaling) primary antibody for overnight at cold room.
(§6) Day 4: Remove the buffer, add IRDye 800CW Goat anti-Rabbit IgG Secondary Antibody (1:2000) and CellTag 700 Stain (1:500) in Intercept (PBS) Blocking Buffer. Finally, cell plate is placed in incubator to dry. Image and signal were captured on Odyssey® DLx Imaging System.

CRBN/DDB1 = target: T2, CRBN/DDB1 (Homo sapiens, UniProt Q96SW2); assay type: binding; settings: HTRF, Cy5-labeled Thalidomide probe
T2 construct: purchased Wuxi RP210521GA
T2 sequence (Q96SW2 whole entry): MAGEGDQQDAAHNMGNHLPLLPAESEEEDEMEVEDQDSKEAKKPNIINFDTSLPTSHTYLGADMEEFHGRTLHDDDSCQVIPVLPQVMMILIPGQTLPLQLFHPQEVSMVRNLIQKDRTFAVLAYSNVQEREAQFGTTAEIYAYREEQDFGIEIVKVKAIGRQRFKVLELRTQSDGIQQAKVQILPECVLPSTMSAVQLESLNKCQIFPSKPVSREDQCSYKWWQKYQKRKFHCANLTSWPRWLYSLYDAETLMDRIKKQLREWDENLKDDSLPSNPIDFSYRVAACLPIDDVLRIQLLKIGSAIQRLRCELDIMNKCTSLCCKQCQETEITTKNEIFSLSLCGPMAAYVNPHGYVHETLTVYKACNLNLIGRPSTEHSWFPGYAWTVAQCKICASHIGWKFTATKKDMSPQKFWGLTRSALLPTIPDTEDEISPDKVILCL
T2 sequence (Q16531 whole entry partner): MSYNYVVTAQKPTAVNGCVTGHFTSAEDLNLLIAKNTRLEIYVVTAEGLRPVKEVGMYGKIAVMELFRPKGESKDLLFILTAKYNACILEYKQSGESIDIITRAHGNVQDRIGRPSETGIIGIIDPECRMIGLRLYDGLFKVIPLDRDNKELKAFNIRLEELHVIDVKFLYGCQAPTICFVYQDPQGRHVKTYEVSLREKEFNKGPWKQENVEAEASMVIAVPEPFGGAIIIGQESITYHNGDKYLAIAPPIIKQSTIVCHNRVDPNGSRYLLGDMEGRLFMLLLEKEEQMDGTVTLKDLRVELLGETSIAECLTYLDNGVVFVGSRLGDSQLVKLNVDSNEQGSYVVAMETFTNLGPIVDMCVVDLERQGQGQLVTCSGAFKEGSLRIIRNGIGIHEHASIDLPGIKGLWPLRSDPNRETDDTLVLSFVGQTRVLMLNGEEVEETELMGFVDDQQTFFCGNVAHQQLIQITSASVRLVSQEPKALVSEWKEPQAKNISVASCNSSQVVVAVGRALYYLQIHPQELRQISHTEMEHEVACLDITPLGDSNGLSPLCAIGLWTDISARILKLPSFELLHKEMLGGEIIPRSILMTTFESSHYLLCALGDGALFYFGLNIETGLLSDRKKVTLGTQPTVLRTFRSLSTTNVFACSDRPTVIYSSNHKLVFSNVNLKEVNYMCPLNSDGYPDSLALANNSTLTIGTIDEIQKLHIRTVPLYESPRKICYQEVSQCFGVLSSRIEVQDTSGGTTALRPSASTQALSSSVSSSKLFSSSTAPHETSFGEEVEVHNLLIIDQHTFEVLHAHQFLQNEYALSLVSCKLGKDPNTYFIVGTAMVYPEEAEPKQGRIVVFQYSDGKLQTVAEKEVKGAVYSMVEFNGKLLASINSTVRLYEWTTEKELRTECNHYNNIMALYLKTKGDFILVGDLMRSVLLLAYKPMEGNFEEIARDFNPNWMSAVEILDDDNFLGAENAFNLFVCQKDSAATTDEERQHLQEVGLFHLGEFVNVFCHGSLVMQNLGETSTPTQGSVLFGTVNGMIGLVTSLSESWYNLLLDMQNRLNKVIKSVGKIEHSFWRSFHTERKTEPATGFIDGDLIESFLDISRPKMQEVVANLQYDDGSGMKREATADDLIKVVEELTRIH
Procedure: The binding potency was determined using HTRF assay technology (Perkin Elmer). Compounds were serially diluted in DMSO and 0.2 μL volume was transferred to white 384-well plate.

ER [2] = target: T1, ER; assay: In-cell Western (ICW) ER degradation assay in T47D cells; assay type: cell-based; settings: T47D cells, 16 hrs; for Dmax: T47D, read-out: ER T47D ICW Dmax (%)
Procedure: as §1, §2, §3, §4, §5, §6

Molecule | Dmax (ER [1]) [%] | DC50 (ER [1]; MCF-7 cells) [nM] | IC50 (CRBN/DDB1) [nM] | DC50 (ER [2]) [nM] | Dmax (ER [2]) [%] | ER MCF7 ICW Dmax (%) (ER [1]; MCF-7 cells) | ER T47D ICW Dmax (%) (ER [2])
C[C@H]1Cc2c(ccc3[nH]ncc23)[C@@H](c2ccc(N3CCC(CN4CCN5c6cc7c(cc6OC[C@H]5C4)C(=O)N([C@@H]4CCC(=O)NC4=O)C7)CC3)nc2)N1CC(F)(F)F (stereo in doubt) [Compound A20, (R)-3-((R)-3-((1-(5-((6S,8S)-8-methyl-7-(2,2,2-trifluoroethyl)-6,7,8,9-tetrahydro-3H-pyrazolo[4,3-f]isoquinolin-6-yl)pyridin-2-yl)piperidin-4-yl)methyl)-8-oxo-1,2,3,4,4a,5,8,10-octahydro-9H-pyrazino[1′,2′:4,5][1,4]oxazino[2,3-f]isoindol-9-yl)piperidine-2,6-dione] | 25 to 50 | 10 to 100 | < 50 | 10 to 100 | 50 to 75 |  | 
C[C@@H]1Cc2c(ccc3[nH]ncc23)[C@@H](c2c(F)cc(N3CCC(CN4CCN5c6ccc7c(c6OC[C@@H]5C4)CN(C4CCC(=O)NC4=O)C7=O)CC3)cc2F)N1CC(F)F (stereo partly drawn) [Compound A2, 3-((S)-7-((1-(4-((6S,8R)-7-(2,2-difluoroethyl)-8-methyl-6,7,8,9-tetrahydro-3H-pyrazolo[4,3-f]isoquinolin-6-yl)-3,5-difluorophenyl)piperidin-4-yl)methyl)-1-oxo-1,3,5,5a,6,7,8,9-octahydro-2H-pyrazino[1′,2′:4,5][1,4]oxazino[2,3-e]isoindol-2-yl)piperidine-2,6-dione] | 50 to 75 | < 1 | 50 to 500 | < 1 | 50 to 75 |  | 
C[C@H]1Cc2c(ccc3[nH]ncc23)[C@H](c2ccc(N3CCC4(CC3)CC(CN3CCN(c5ccc(C(=O)NC6CCC(=O)NC6=O)nc5)CC3)C4)cn2)N1CC(F)(F)F (stereo in doubt) [Compound A9, N-(2,6-dioxopiperidin-3-yl)-5-(4-((7-(6-((6R,8S)-8-methyl-7-(2,2,2-trifluoroethyl)-6,7,8,9-tetrahydro-3H-pyrazolo[4,3-f]isoquinolin-6-yl)pyridin-3-yl)-7-azaspiro[3.5]nonan-2-yl)methyl)piperazin-1-yl)picolinamide] | 50 to 75 | < 1 | 50 to 500 | < 1 | 50 to 75 |  | 
C[C@H]1Cc2c(ccc3[nH]ncc23)[C@H](c2ccc(N3CCC4(CC3)CC(CN3CCN5c6cc7c(cc6OC[C@@H]5C3)C(=O)N([C@@H]3CCC(=O)NC3=O)C7)C4)cn2)N1CC1(F)CC1 (stereo in doubt) [Compound A13, (R)-3-((S)-3-((7-(6-((6R,8S)-7-((1-fluorocyclopropyl)methyl)-8-methyl-6,7,8,9-tetrahydro-3H-pyrazolo[4,3-f]isoquinolin-6-yl)pyridin-3-yl)-7-azaspiro[3.5]nonan-2-yl)methyl)-8-oxo-1,2,3,4,4a,5,8,10-octahydro-9H-pyrazino[1′,2′:4,5][1,4]oxazino[2,3-f]isoindol-9-yl)piperidine-2,6-dione] | 25 to 50 | < 1 | < 50 | < 1 | 50 to 75 |  | 
(S)-3-((R)-7-((1-(5-((6S,8R)-8-methyl-7- (2,2,2-trifluoroethyl)-6,7,8,9-tetrahydro-3H- pyrazolo[4,3-f]isoquinolin-6-yl)pyridin-2- yl)piperidin-4-yl)methyl)-1-oxo- 1,3,5,5a,6,7,8,9-octahydro-2H- pyrazino[1′,2′:4,5][1,4]oxazino[2,3-c]isoindol- 2-yl)piperidine-2,6-dione [Compound A23] |  | 1 to 10 | 500 to 5000 | 1 to 10 |  | B (“B”: >50% and <75%) | B (“B”: >50% and <75%)
C[C@H]1Cc2c(ccc3[nH]ncc23)[C@H](c2ccc(N3CCC4(CC3)CC(CN3CCC(c5ccc(NC6CCC(=O)NC6=O)cc5)CC3)C4)cn2)N1CC(F)(F)F (stereo in doubt) [Compound A10, 3-((4-(1-((7-(6-((6R,8S)-8-methyl-7-(2,2,2-trifluoroethyl)-6,7,8,9-tetrahydro-3H-pyrazolo[4,3-f]isoquinolin-6-yl)pyridin-3-yl)-7-azaspiro[3.5]nonan-2-yl)methyl)piperidin-4-yl)phenyl)amino)piperidine-2,6-dione] | 50 to 75 | < 1 | 50 to 500 | < 1 | 50 to 75 |  | 
C[C@@H]1Cc2c(ccc3[nH]ncc23)[C@@H](c2ccc(N3CCC4(CC3)CC(CN3CCN5c6cc7c(cc6OC[C@H]5C3)C(=O)N([C@@H]3CCC(=O)NC3=O)C7)C4)cn2)N1CC1(F)CC1 [Compound A14, (R)-3-((R)-3-((7-(6-((6S,8R)-7-((1-fluorocyclopropyl)methyl)-8-methyl-6,7,8,9-tetrahydro-3H-pyrazolo[4,3-f]isoquinolin-6-yl)pyridin-3-yl)-7-azaspiro[3.5]nonan-2-yl)methyl)-8-oxo-1,2,3,4,4a,5,8,10-octahydro-9H-pyrazino[1′,2′:4,5][1,4]oxazino[2,3-f]isoindol-9-yl)piperidine-2,6-dione] | 50 to 75 | < 1 | 50 to 500 | < 1 | > 75 |  | 
C[C@H]1Cc2c(ccc3[nH]ncc23)[C@@H](c2ccc(N3CC4(CCC(CN5CCN6c7ccc8c(c7OC[C@@H]6C5)CN([C@@H]5CCC(=O)NC5=O)C8=O)CC4)C3)nc2)N1CC(F)(F)F (stereo in doubt) [Compound A18, (R)-3-((S)-7-((2-(5-((6S,8S)-8-methyl-7-(2,2,2-trifluoroethyl)-6,7,8,9-tetrahydro-3H-pyrazolo[4,3-f]isoquinolin-6-yl)pyridin-2-yl)-2-azaspiro[3.5]nonan-7-yl)methyl)-1-oxo-1,3,5,5a,6,7,8,9-octahydro-2H-pyrazino[1′,2′:4,5][1,4]oxazino[2,3-e]isoindol-2-yl)piperidine-2,6-dione] | 50 to 75 | 1 to 10 | 50 to 500 | 1 to 10 | 50 to 75 |  | 

Reference: patent US20260256925A1, “INDAZOLE DERIVATIVES AS ESTROGEN RECEPTOR DEGRADERS” (REGENTS OF THE UNIVERSITY OF MICHIGAN, priority 2022, published 2026)
